# Test results reported in patent publication US7989447B2, “1,5 and 3,6-substituted indole compounds having NOS inhibitory activity” (NeurAxon, Inc., priority 2006, dated 2011).
# pIC50: −log10 of the molar value.
# Columns and labels:
# [1] = target: human neuronal constitutive NOS (nNOS) (Homo sapiens, UniProt P29475); test: nNOS (Human) enzyme assay, radiometric conversion of [3H]L-arginine to [3H]L-citrulline; type: biochemical; settings: for Ratio e/n: human eNOS / human nNOS; for pIC50: recombinant human enzyme, 37° C., 45 min, read-out: Human nNOS
# [2] = target: human endothelial constitutive NOS (eNOS) (Homo sapiens, UniProt P29474); test: eNOS (Human) enzyme assay, radiometric conversion of [3H]L-arginine to [3H]L-citrulline; type: biochemical; settings: recombinant human enzyme, 37° C., 45 min; read-out: Human eNOS
# Protocol: Recombinant human inducible NOS (iNOS), human endothelial constitutive NOS (eNOS) or human neuronal constitutive NOS(nNOS) were produced in Baculovirus-infected Sf9 cells (ALEXIS). In a radiometric method, NO synthase activity was determined by measuring the conversion of [^3H]L-arginine to [^3H]L-citrulline. To measure iNOS, 10 μL of enzyme was added to 100 μL of 100 mM HEPES, pH=7,4, containing 1 mM CaCl2, 1 mM EDTA, 1 mM dithiotheitol, 1 μM FMN, 1 μM FAD, 10 μM tetrahydrobiopterin, 120 μM NADPH, and 100 nM CaM. To measure eNOS or nNOS, 10 μL of enzyme was added to 100 μL of 40 mM HEPES, pH=7.4, containing 2.4 mM CaCl2, 1 mM MgCl2, 1 mg/mL BSA, 1 mM EDTA, 1 mM dithiothreitol, 1 μM FMN, 1 μM FAD, 10 μM tetrahydrobiopterin, 1 mM NADPH, and 1.2 μM CaM.
# To measure enzyme inhibition, a 15 μL solution of a test substance was added to the enzyme assay solution, followed by a pre-incubation time of 15 min at RT. The reaction was initiated by addition of 20 μL L-arginine containing 0.25 μCi of [^3H]arginine/mL and 24 μM L-arginine. The total volume of the reaction mixture was 150 μL in every well. The reactions were carried out at 37° C. for 45 min. The reaction was stopped by adding 20 μL of ice-cold buffer containing 100 mM HEPES, 3 mM EGTA, 3 mM EDTA, pH=5.5. [^3H]L-citrulline was separated by DOWEX (ion-exchange resin DOWEX 50 W X 8-400, SIGMA) and the DOWEX was removed by spinning at 12,000 g for 10 min in the centrifuge. An 70 μL aliquot of the supernatant was added to 100 μL of scintillation fluid and the samples were counted in a liquid scintillation counter (1450 Microbeta Jet, Wallac). […] All assays were performed at least in duplicate.
# Chain of human neuronal constitutive NOS (nNOS) (P29475 whole entry): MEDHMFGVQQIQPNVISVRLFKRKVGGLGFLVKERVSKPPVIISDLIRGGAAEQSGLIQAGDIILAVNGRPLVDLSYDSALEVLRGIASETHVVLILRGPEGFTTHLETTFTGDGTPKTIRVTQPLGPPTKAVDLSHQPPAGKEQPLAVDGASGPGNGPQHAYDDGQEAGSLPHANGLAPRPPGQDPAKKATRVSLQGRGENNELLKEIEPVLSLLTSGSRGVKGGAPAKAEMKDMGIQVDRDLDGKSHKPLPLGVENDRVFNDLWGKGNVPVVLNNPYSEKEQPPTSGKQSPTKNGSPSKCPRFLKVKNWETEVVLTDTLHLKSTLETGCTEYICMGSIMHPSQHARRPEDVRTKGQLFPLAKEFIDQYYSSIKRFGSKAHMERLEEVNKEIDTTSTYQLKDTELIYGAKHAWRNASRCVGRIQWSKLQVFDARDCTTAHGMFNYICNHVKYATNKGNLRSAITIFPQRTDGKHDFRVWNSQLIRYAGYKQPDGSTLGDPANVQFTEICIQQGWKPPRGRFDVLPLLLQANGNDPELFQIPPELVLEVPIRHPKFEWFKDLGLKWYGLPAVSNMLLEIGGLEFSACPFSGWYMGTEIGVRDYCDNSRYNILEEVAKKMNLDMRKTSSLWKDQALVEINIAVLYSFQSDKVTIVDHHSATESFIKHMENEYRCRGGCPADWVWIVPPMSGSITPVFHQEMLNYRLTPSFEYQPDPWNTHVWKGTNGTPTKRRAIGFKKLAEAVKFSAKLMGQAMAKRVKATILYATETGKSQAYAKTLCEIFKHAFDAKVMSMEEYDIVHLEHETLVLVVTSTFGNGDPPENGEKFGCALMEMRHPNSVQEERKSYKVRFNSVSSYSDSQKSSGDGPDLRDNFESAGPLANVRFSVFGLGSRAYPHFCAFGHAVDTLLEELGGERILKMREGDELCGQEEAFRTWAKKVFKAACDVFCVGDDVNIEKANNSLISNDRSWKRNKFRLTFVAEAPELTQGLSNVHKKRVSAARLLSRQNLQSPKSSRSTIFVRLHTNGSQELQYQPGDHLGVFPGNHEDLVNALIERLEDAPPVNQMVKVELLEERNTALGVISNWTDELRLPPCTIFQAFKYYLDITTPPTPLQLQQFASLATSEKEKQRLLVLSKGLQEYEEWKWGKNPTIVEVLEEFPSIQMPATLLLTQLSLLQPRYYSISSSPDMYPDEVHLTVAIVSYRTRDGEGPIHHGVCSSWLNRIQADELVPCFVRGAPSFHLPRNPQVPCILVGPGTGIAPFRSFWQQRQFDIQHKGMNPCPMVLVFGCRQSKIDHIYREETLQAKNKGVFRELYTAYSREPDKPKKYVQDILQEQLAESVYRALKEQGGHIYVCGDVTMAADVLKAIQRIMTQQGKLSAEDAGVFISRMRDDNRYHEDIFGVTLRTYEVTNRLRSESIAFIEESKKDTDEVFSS
SMILES,Ratio e/n [1],pIC50 [1],pIC50 [2]
"CN1CCCC1CCn1c(Cc2ccccc2)cc2cc(NC(=N)c3cccs3)ccc21 (stereo not drawn) [Compound 6, N-(2-benzyl-1-(2-(1-methylpyrrolidin-2-yl)ethyl)-1H-indol-5-yl)thiophene-2-carboximidamide]",41.57,6.72,5.10
"N=C(Nc1ccc2c(c1)cc(-c1ccc([N+](=O)[O-])cc1)n2CCN1CCCCC1)c1cccs1 [Compound 18, N-(2-(4-nitrophenyl)-1-(2-(piperidin-1-yl)ethyl)-1H-indol-5-yl)thiophene-2-carboximidamide]",–,6.39,4.72
"Cc1cc2cc(NC(=N)c3cccs3)ccc2n1CCC1CCCN1C (stereo not drawn) [Compound 32, N-(2-methyl-1-(2-(1-methylpyrrolidin-2-yl)ethyl)-1H-indol-5-yl)thiophene-2-carboximidamide]",20.2,6.85,5.54
"CN1CCCC1CCn1ccc2cc(CNC(=N)c3cccs3)ccc21 (stereo not drawn) [Compound 37, N-((1-(2-(1-methylpyrrolidin-2-yl)ethyl)-1H-indol-5-yl)methyl)thiophene-2-carboximidamide]",1.24,4.14,4.04
"N=C(Nc1ccc2c(ccn2CCCNC2CC2)c1)c1cccs1 [Compound 46, N-(1-(3-(cyclopropylamino)propyl)-1H-indol-5-yl)thiophene-2-carboximidamide]",32.53,6.59,5.06
"CN1CCCC1CCn1ccc2cc(NC(=N)c3cccs3)ccc21 (stereo not drawn) [Compound 56, N-(1-(2-(1-methylpyrrolidin-2-yl)ethyl)-1H-indol-5-yl)thiophene-2-carboximidamide]",–,–,5.35
"CN1CCCCC1CCn1ccc2cc(NC(=N)c3cccs3)ccc21 (stereo not drawn) [Compound 62, N-(1-(2-(1-methylpiperidin-2-yl)ethyl)-1H-indol-5-yl)thiophene-2-carboximidamide]",68.01,7.05,5.19

# More lines, in order of rising pIC50 [2], values ahead:
Ratio e/n [1],pIC50 [1],pIC50 [2],SMILES
–,–,4.86,"CN1CCCC1CCn1ccc2cc(NC(=N)c3ccco3)ccc21 (stereo not drawn) [Compound 53, N-(1-(2-(1-methylpyrrolidin-2-yl)ethyl)-1H-indol-5-yl)furan-2-carboximidamide]"
–,–,4.91,"CN(C)CCCn1ccc2cc(NC(=N)c3cccs3)ccc21 [Compound 48, N-(1-(3-(dimethylamino)propyl)-1H-indol-5-yl)thiophene-2-carboximidamide]"
–,–,5.20,"CCN1CCCC1CNCCCn1ccc2cc(NC(=N)c3cccs3)ccc21 (stereo not drawn) [Compound 44, N-(1-(3-((1-ethylpyrrolidin-2-yl)methylamino)propyl)-1H-indol-5-yl)thiophene-2-carboximidamide]"
9.09,6.18,5.22,"N=C(Nc1ccc2c(ccn2CCCN2CCOCC2)c1)c1cccs1 [Compound 40, N-(1-(3-morpholinopropyl)-1H-indol-5-yl)thiophene-2-carboximidamide]"
3.88,6.09,5.50,"Cc1cc2cc(NC(=N)c3cccs3)ccc2n1CCN(C)C [Compound 25, N-(1-(2-(dimethylamino)ethyl)-2-methyl-1H-indol-5-yl)thiophene-2-carboximidamide]"
8.67,6.44,5.50,"N=C(Nc1ccc2c(ccn2CCCNC23CC4CC(CC(C4)C2)C3)c1)c1cccs1 [Compound 42, N-(1-(3-adamantanaminopropyl)-1H-indol-5-yl)thiophene-2-carboximidamide]"
6.74,6.42,5.59,"N=C(Nc1ccc2c(ccn2-c2cccnc2)c1)c1cccs1 [Compound 74, N-(1-(pyridin-3-yl)-1H-indol-5-yl)thiophene-2-carboximidamide]"
7.41,6.70,5.83,"Cc1cc2cc(NC(=N)c3cccs3)ccc2n1CCN1CCCC1 [Compound 28, N-(2-methyl-1-(2-(pyrrolidin-1-yl)ethyl)-1H-indol-5-yl)thiophene-2-carboximidamide]"
